How the values were obtained:
[1] = target: T1, OpSTR (strictosidine synthase from Ophiorrhiza pumila) (Ophiorrhiza pumila, UniProt Q94LW9); experiment: biochemical; parameters: gene str
[2] = target: T1, OpSTR (strictosidine synthase from Ophiorrhiza pumila); experiment: X-ray crystal structure (cocrystallization with racemate); assay type: binding; parameters: gene str; N-terminal signal peptide removed for improved expression; conditions: active site, near Glu276
[3] = substrate: CC(C)CC=O; experiment: enzyme kinetics of Pictet-Spengler reaction; assay type: biochemical, Ophiorrhiza pumila; conditions: co-substrate tryptamine

**Q.** With CC1NCCc2c1[nH]c1ccccc21 (racemic) [rac-3d] as the molecule, how does the IC50 [1] read?
**A.** Its IC50 is 3400 ± 300 µM.

**Q.** For CC(C)C[C@@H]1NCCc2c1[nH]c1ccccc21 [3a, (S)-3a], which “X-ray crystal structure (cocrystallization with racemate)” value (“X-ray crystal structure” for short) [2] is on record?
**A.** The value was “exclusively the (S)-enantiomers of 3a–c were identified in the active site of OpSTR”.

**Q.** How did the “X-ray crystal structure” value [2] turn out when CCC[C@@H]1NCCc2c1[nH]c1ccccc21 [3b, (S)-3b] was run?
**A.** Its value is “exclusively the (S)-enantiomers of 3a–c were identified in the active site of OpSTR”.

**Q.** How did the “X-ray crystal structure” value [2] turn out when CC[C@@H]1NCCc2c1[nH]c1ccccc21 [3c, (S)-3c] was run?
**A.** The value was “exclusively the (S)-enantiomers of 3a–c were identified in the active site of OpSTR”.

**Q.** C[C@@H]1NCCc2c1[nH]c1ccccc21 [(S)-3d] was tested. Which IC50 [1] did it give?
**A.** Its IC50 is 1600 ± 100 µM.

B1: OpSTR (strictosidine synthase from Ophiorrhiza pumila) (Ophiorrhiza pumila) (protein)
chain: SPEFFEFIEAPSYGPNAYAFDSDGELYASVEDGRIIKYDKPSNKFLTHAVASPIWNNALCENNTNQDLKPLCGRVYDFGFHYETQRLYIADCYFGLGFVGPDGGHAIQLATSGDGVEFKWLYALAIDQQAGFVYVTDVSTKYDDRGVQDIIRINDTTGRLIKYDPSTEEVTVLMKGLNIPGGTEVSKDGSFVLVGEFASHRILKYWLKGPKANTSEFLLKVRGPGNIKRTKDGDFWVASSDNNGITVTPRGIRFDEFGNILEVVAIPLPYKGEHIEQVQEHDGALFVGSLFHEFVGILHNYKSSVDHHQEKNSGGLNASFKEFSSF
notes: N-terminal signal peptide removed for improved expression
**Q.** Which Km [3] does the source give for B1 here?
**A.** Its Km is 5.36 ± 0.83 mM.

Source: article PMC6966912, “Inverted Binding of Non-natural Substrates in Strictosidine Synthase Leads to a Switch of Stereochemical Outcome in Enzyme-Catalyzed Pictet–Spengler Reactions” (Journal of the American Chemical Society, 2020)
